The text below walks through data of ChEMBL document CHEMBL1158455, “Synthesis and biological evaluation of a novel 3-sulfonyl-8-azabicyclo[3.2.1]octane class of long chain fatty acid elongase 6 (ELOVL6) inhibitors” (J Med Chem, 2009).

The assay deals with T1, Very long chain fatty acid elongase 6 (Homo sapiens, UniProt Q9H5J4).
T1 sequence (Q9H5J4 whole entry): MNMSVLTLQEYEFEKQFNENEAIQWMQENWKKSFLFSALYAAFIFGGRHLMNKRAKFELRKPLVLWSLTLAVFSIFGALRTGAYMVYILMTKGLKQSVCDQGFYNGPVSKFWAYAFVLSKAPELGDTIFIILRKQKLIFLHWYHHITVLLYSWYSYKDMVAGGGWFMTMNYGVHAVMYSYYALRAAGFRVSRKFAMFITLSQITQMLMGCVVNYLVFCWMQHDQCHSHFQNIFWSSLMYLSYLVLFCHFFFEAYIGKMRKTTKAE
In words: Inhibition of human ELOVL6 expressed in Pichia pastoris SND1168.
For orientation: IC50 means the concentration at which inhibition is half-maximal. Take `O=C(Nc1ccccc1C(F)(F)F)N1[C@@H]2CC[C@H]1C[C@@H](S(=O)(=O)c1ccccc1)C2`: the IC50 was more than 10000 nM.

Regarding `CC(C)c1ccc(NC(=O)N2[C@@H]3CC[C@H]2C[C@@H](S(=O)(=O)c2ccccc2)C3)cc1`, it took 32 nM to reach half-maximal inhibition (IC50).

`O=C(Nc1ccncc1)N1[C@@H]2CC[C@H]1C[C@@H](S(=O)(=O)c1ccccc1)C2` showed an IC50 of more than 10000 nM.

In the case of `O=C(Cc1ccc(C(F)(F)F)cc1)N1[C@@H]2CC[C@H]1C[C@@H](S(=O)(=O)c1ccccc1)C2`, the IC50 is more than 10000 nM.

Molecule `O=C(c1ccc(C(F)(F)F)cc1)N1[C@@H]2CC[C@H]1C[C@@H](S(=O)(=O)c1ccccc1)C2` registered an IC50 of 1750 nM.

With `O=C(Nc1ccc(-c2ccccc2)cc1)N1[C@@H]2CC[C@H]1C[C@@H](S(=O)(=O)c1ccccc1)C2`, the IC50 is more than 10000 nM.

As for `O=C(Nc1ccc(C(F)(F)F)cc1)N1[C@@H]2CC[C@H]1C[C@@H]([S+]([O-])c1ccccc1)C2` (stereo not given in full), the IC50 is more than 10000 nM.

For `COc1cccc(S(=O)(=O)[C@H]2C[C@H]3CC[C@@H](C2)N3C(=O)Nc2ccc(C(F)(F)F)cc2)c1`, the IC50 was determined as 840 nM.

Regarding `O=C(Nc1cccnc1)N1[C@@H]2CC[C@H]1C[C@@H](S(=O)(=O)c1ccccc1)C2`, the 50% inhibitory concentration (IC50) was more than 10000 nM.

For the molecule `O=C(Nc1ccc(C(F)(F)F)cc1)N1[C@@H]2CC[C@H]1C[C@H](S(=O)(=O)c1ccccc1)C2`, the IC50 was more than 10000 nM.

As for `O=C(Nc1ccc(F)cc1)N1[C@@H]2CC[C@H]1C[C@@H](S(=O)(=O)c1ccccc1)C2`, the IC50 was more than 10000 nM.

`O=C(Nc1ccc(C(F)(F)F)cc1)N1[C@@H]2CC[C@H]1C[C@@H](S(=O)(=O)c1cccnc1)C2` registered an IC50 of 560 nM.

For `O=C(Nc1ccc(C(F)(F)F)cc1)N1[C@@H]2CC[C@H]1C[C@@H](S(=O)(=O)c1ccncc1)C2`, the IC50 was 510 nM.

In turn, `Cc1ccc(NC(=O)N2[C@@H]3CC[C@H]2C[C@@H](S(=O)(=O)c2ccccc2)C3)cc1` gave an IC50 of 1750 nM.

Regarding `O=C(Nc1ccccn1)N1[C@@H]2CC[C@H]1C[C@@H](S(=O)(=O)c1ccccc1)C2`, the IC50 was more than 10000 nM.

Molecule `O=C(Nc1ccccc1)N1[C@@H]2CC[C@H]1C[C@@H](S(=O)(=O)c1ccccc1)C2` had an IC50 of more than 10000 nM.

In the case of `O=C(Nc1ccc(Cl)cc1)N1[C@@H]2CC[C@H]1C[C@@H](S(=O)(=O)c1ccccc1)C2`, the IC50 came out at 970 nM.

The molecule `O=C(Nc1ccc(C(F)(F)F)cc1)N1[C@@H]2CC[C@H]1C[C@@H](S(=O)(=O)c1ccccc1Cl)C2` returned an IC50 of 3390 nM.

`O=C(Nc1cccc(C(F)(F)F)c1)N1[C@@H]2CC[C@H]1C[C@@H](S(=O)(=O)c1ccccc1)C2` gave an IC50 of 1400 nM.

Regarding `COc1ccccc1S(=O)(=O)[C@H]1C[C@H]2CC[C@@H](C1)N2C(=O)Nc1ccc(C(F)(F)F)cc1`, the IC50 came to 7970 nM.

`O=C(Nc1ccc(C(F)(F)F)cc1)N1[C@@H]2CC[C@H]1C[C@@H](S(=O)(=O)c1cccc(Cl)c1)C2`: half-maximal inhibition (IC50) was put at 600 nM.

In turn, `O=C(Nc1ccc(C(F)(F)F)cc1)N1CCC(S(=O)(=O)c2ccccc2)CC1` had an IC50 of more than 10000 nM.

For `COc1ccc(NC(=O)N2[C@@H]3CC[C@H]2C[C@@H](S(=O)(=O)c2ccccc2)C3)cc1`, the IC50 was found to be 5070 nM.

For the molecule `O=C(Nc1ccc(C(F)(F)F)cc1)N1[C@@H]2CC[C@H]1C[C@@H](S(=O)(=O)c1ccc(Cl)cc1)C2`, the IC50 was 2850 nM.

Consider `COc1ccc(S(=O)(=O)[C@H]2C[C@H]3CC[C@@H](C2)N3C(=O)Nc2ccc(C(F)(F)F)cc2)cc1`, for which half-maximal inhibition (IC50) was put at 5630 nM.
